Our source for the T/C values is PubChem BioAssay AID248 (DTP/NCI, 2004).

Where “and” joins values, the source holds several entries; their conditions need not be identical. Identical values can stand only once. Toxic doses and inconclusive results are not listed.

The test system of the assay is L1210 leukemia ip in BDF1 mice, survival T/C. The assay is described as follows: NCI In Vivo Anticancer Drug Screen. Data for tumor model L1210 Leukemia (intraperitoneal) in B6D2F1 (BDF1) mice. Conditions: endpoint: mean survival time, higher = longer survival. The method in brief:
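Antitumor effect is assessed in tumor-bearing animals. Survival in the compound arm is compared with a vehicle-dosed control arm and expressed as their quotient.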

Where [1] appears, read: dose: 100.0 mg/kg/injection, schedule: Q04DX003 (ip), vehicle: saline with Tween-80.
Setting [2] is: dose: 200.0 mg/kg/injection, schedule: Q04DX003 (ip), vehicle: saline with Tween-80.
Where [3] appears, read: dose: 400.0 mg/kg/injection, schedule: Q04DX003 (ip), vehicle: saline with Tween-80.
Setting [4] is: dose: 100.0 mg/kg/injection, schedule: Q01DX009 (ip), vehicle: Klucel (hydroxypropylcellulose) (HPC).
[5] abbreviates: dose: 200.0 mg/kg/injection, schedule: Q01DX009 (ip), vehicle: Klucel (hydroxypropylcellulose) (HPC).
Setting [6] is: dose: 400.0 mg/kg/injection, schedule: Q01DX009 (ip), vehicle: Klucel (hydroxypropylcellulose) (HPC).

As for `CCCCCCCCCCCCOC(=O)/C=C\C(=O)NC(N)=O`, the T/C runs as follows: (dose: 25.0 mg/kg/injection, schedule: Q04DX003 (ip), vehicle: Klucel (hydroxypropylcellulose) (HPC)) 102 % of control; (dose: 50.0 mg/kg/injection, schedule: Q04DX003 (ip), vehicle: Klucel (hydroxypropylcellulose) (HPC)) 97 % of control; (dose: 100.0 mg/kg/injection, schedule: Q04DX003 (ip), vehicle: Klucel (hydroxypropylcellulose) (HPC)) 105 % of control and 91 % of control; (dose: 150.0 mg/kg/injection, schedule: Q04DX003 (ip), vehicle: Klucel (hydroxypropylcellulose) (HPC)) 96 % of control.

In the case of `CC(=O)CC(=O)Nc1ccc(C(=O)c2ccccc2)cc1`, the T/C (dose: 37.5 mg/kg/injection, schedule: Q01DX009 (ip), vehicle: saline) is 98 % of control; the T/C (dose: 75.0 mg/kg/injection, schedule: Q01DX001 (ip), vehicle: acetone) is 87 % of control; the T/C (dose: 75.0 mg/kg/injection, schedule: Q01DX001 (ip), vehicle: saline) was 95 % of control; the T/C (dose: 75.0 mg/kg/injection, schedule: Q01DX009 (ip), vehicle: saline) was 93 % of control; the T/C (dose: 150.0 mg/kg/injection, schedule: Q01DX001 (ip), vehicle: saline) was 98 % of control; the T/C (dose: 150.0 mg/kg/injection, schedule: Q01DX009 (ip), vehicle: saline) is 107 % of control. For the same molecule, the T/C was 98 % of control (dose: 300.0 mg/kg/injection, schedule: Q01DX001 (ip), vehicle: acetone) and 90 % of control (dose: 300.0 mg/kg/injection, schedule: Q01DX001 (ip), vehicle: saline).

For the molecule `CCOP(=S)(NN=C1CCC(C(C)(C)C)CC1)OCC` (centres undefined), the T/C was 103 % of control (dose: 100.0 mg/kg/injection, schedule: Q01DX001 (ip), vehicle: saline) and 97 % of control (dose: 200.0 mg/kg/injection, schedule: Q01DX001 (ip), vehicle: saline).

As for `O=c1[nH]c(=S)c2c3c(sc2[nH]1)CCCC3`, the T/C (dose: 100.0 mg/kg/injection, schedule: Q04DX003 (ip), vehicle: saline sonified) is 95 % of control; the T/C (dose: 200.0 mg/kg/injection, schedule: Q04DX003 (ip), vehicle: saline sonified) is 97 % of control; the T/C (dose: 400.0 mg/kg/injection, schedule: Q04DX003 (ip), vehicle: saline sonified) was 93 % of control.

Regarding `O=C(NCCCl)NC1CCC(O)CC1` (centres undefined), the T/C runs as follows: (dose: 100.0 mg/kg/injection, schedule: Q04DX003 (ip), vehicle: saline) 107 % of control; (dose: 200.0 mg/kg/injection, schedule: Q04DX003 (ip), vehicle: saline) 100 % of control; (dose: 400.0 mg/kg/injection, schedule: Q04DX003 (ip), vehicle: saline) 100 % of control.

Turning to `O=C(O)c1cn(C2CCCCC2)c(=O)[nH]c1=O`, the T/C was 107 % of control (dose: 25.0 mg/kg/injection, schedule: Q01DX Z (ip), vehicle: methylcellulose (MC)) and 91 % of control (dose: 50.0 mg/kg/injection, schedule: Q01DX Z (ip), vehicle: methylcellulose (MC)).

As for `O=C1C(c2ccccc2)=C(c2ccccc2)c2c1c(-c1ccccc1)c(-c1ccccc1)c(-c1ccccc1)c2-c1ccccc1`, the T/C is 98 % of control (dose: 6.25 mg/kg/injection, schedule: Q01DX001 (ip), vehicle: saline with Tween-80); 98 % of control (dose: 12.5 mg/kg/injection, schedule: Q01DX001 (ip), vehicle: saline with Tween-80); 89 % of control and 91 % of control (dose: 25.0 mg/kg/injection, schedule: Q01DX001 (ip), vehicle: saline with Tween-80); 90 % of control (dose: 200.0 mg/kg/injection, schedule: Q01DX001 (ip), vehicle: saline with Tween-80); 87 % of control (dose: 400.0 mg/kg/injection, schedule: Q01DX001 (ip), vehicle: saline with Tween-80).

On to `Cc1ncc2c(=O)n(-c3ccc([N+](=O)[O-])cc3)[nH]c2n1`, for which the T/C was 108 % of control under setting [1], 100 % of control under setting [2] and 108 % of control under setting [3].

Consider `Cc1cc(NC(=O)N(CCCl)N=O)c(C)cc1NC(=O)c1ccccc1`, for which the T/C was 124 % of control (dose: 4.2 mg/kg/injection, schedule: Q01DX009 (ip), vehicle: carboxymethylcellulose (CMC)); 111 % of control (dose: 9.6 mg/kg/injection, schedule: Q01DX001 (ip), vehicle: carboxymethylcellulose (CMC)); 186 % of control (dose: 14.0 mg/kg/injection, schedule: Q01DX009 (ip), vehicle: other); 196 % of control (dose: 22.0 mg/kg/injection, schedule: Q01DX009 (ip), vehicle: other); 213 % of control (dose: 33.0 mg/kg/injection, schedule: Q01DX009 (ip), vehicle: other); 180 % of control (dose: 50.0 mg/kg/injection, schedule: Q01DX009 (ip), vehicle: carboxymethylcellulose (CMC)). The T/C (dose: 58.0 mg/kg/injection, schedule: Q01DX009 (ip), vehicle: carboxymethylcellulose (CMC)) is 175 % of control; the T/C (dose: 75.0 mg/kg/injection, schedule: Q01DX001 (ip), vehicle: carboxymethylcellulose (CMC)) is 159 % of control; the T/C (dose: 75.0 mg/kg/injection, schedule: Q01DX009 (ip), vehicle: carboxymethylcellulose (CMC)) is 193 % of control; the T/C (dose: 88.0 mg/kg/injection, schedule: Q01DX009 (ip), vehicle: carboxymethylcellulose (CMC)) was 190 % of control; the T/C (dose: 120.0 mg/kg/injection, schedule: Q01DX001 (ip), vehicle: carboxymethylcellulose (CMC)) was 150 % of control; the T/C (dose: 132.0 mg/kg/injection, schedule: Q01DX009 (ip), vehicle: carboxymethylcellulose (CMC)) was 228 % of control. Further, the T/C is 153 % of control (dose: 177.0 mg/kg/injection, schedule: Q01DX001 (ip), vehicle: carboxymethylcellulose (CMC)); 163 % of control (dose: 200.0 mg/kg/injection, schedule: Q01DX009 (ip), vehicle: carboxymethylcellulose (CMC)); 162 % of control (dose: 266.0 mg/kg/injection, schedule: Q01DX001 (ip), vehicle: carboxymethylcellulose (CMC)); 91 % of control (dose: 266.0 mg/kg/injection, schedule: Q01DX001 (ip), vehicle: other); 245 % of control (dose: 400.0 mg/kg/injection, schedule: Q01DX001 (ip), vehicle: carboxymethylcellulose (CMC)); 219 % of control (dose: 600.0 mg/kg/injection, schedule: Q01DX001 (ip), vehicle: carboxymethylcellulose (CMC)).

Turning to `O=C1CCCCC1CO` (centres undefined), the T/C is, setting by setting: under setting [4], 96 % of control; (dose: 100.0 mg/kg/injection, schedule: Q04DX002 (ip), vehicle: Klucel (hydroxypropylcellulose) (HPC)) 96 % of control; under setting [5], 100 % of control; (dose: 200.0 mg/kg/injection, schedule: Q04DX002 (ip), vehicle: Klucel (hydroxypropylcellulose) (HPC)) 100 % of control; under setting [6], 89 % of control; (dose: 400.0 mg/kg/injection, schedule: Q04DX002 (ip), vehicle: Klucel (hydroxypropylcellulose) (HPC)) 86 % of control.

In the case of `O=C(O)Cc1csc2ccccc12`, the T/C reads like this: (dose: 100.0 mg/kg/injection, schedule: Q01DX001 (ip), vehicle: other) 100 % of control; (dose: 200.0 mg/kg/injection, schedule: Q01DX001 (ip), vehicle: other) 97 % of control; (dose: 400.0 mg/kg/injection, schedule: Q01DX001 (ip), vehicle: other) 103 % of control.

`O=C1CC(N2CCOCC2)c2ccccc21` (centres undefined): the T/C runs as follows: (dose: 100.0 mg/kg/injection, schedule: Q01DX001 (ip), vehicle: Klucel (hydroxypropylcellulose) (HPC)) 98 % of control; under setting [4], 102 % of control; (dose: 200.0 mg/kg/injection, schedule: Q01DX001 (ip), vehicle: Klucel (hydroxypropylcellulose) (HPC)) 92 % of control; under setting [5], 93 % of control; (dose: 400.0 mg/kg/injection, schedule: Q01DX001 (ip), vehicle: Klucel (hydroxypropylcellulose) (HPC)) 92 % of control; under setting [6], 91 % of control.

On to `Nc1cc(Cl)ccc1S(N)(=O)=O`, for which the T/C is, setting by setting: (dose: 100.0 mg/kg/injection, schedule: Q01DX009 (ip), vehicle: saline) 92 % of control; under setting [1], 105 % of control; (dose: 200.0 mg/kg/injection, schedule: Q01DX009 (ip), vehicle: saline) 100 % of control; under setting [2], 105 % of control; (dose: 400.0 mg/kg/injection, schedule: Q01DX009 (ip), vehicle: saline) 111 % of control; under setting [3], 108 % of control.
